Patent publication US6930098B2, “Use of polysulphated cyclodextrins for treating osteoarthritis” (Universiteit Gent, priority 2000, dated 2005)

System: Human articular chondrocytes
Experiment: Synthesis of extracellular aggrecans by chondrocytes cultured in agarose gel (35S incorporation)
Type: cell-based
Settings: 2.5 μg/ml, 48 hours with Na2 35SO4 after culturing for two weeks; for Amount of 35S-aggrecans associated with the cells: cell-associated fraction; for Amount of 35S-aggrecans in the medium: incubation medium fraction; for Amount of 35S-aggrecans in the interterritorial matrix: interterritorial matrix fraction
Experimental: Evaluation of the in vitro effects of polysulphated cyclodextrins on the synthesis of extracellular aggrecans by chondrocytes.
Human articular chondrocytes are isolated according to the methods described by W. T. Green Jr (Clin. Orthop., 1971, 75, 248-260) and K. E. Kuettner et al. (J. Cell. Biol., 1982, 93, 743-750).
The chondrocytes are then cultured in agarose gel, in accordance with the method described by P. D. Benya et al. (Cell., 1982, 30, 215-224) and modified according to M. Cornelissen et al. (J. Tiss. Cult. Meth., 1993, 15, 139-146) and according to G. Verbruggen et al. (Clin. Exp. Rheumatol, 1990, 8, 371-378).
Synthesis of aggrecans: This is measured by determining the incorporation of 35S, supplied by a radioactive precursor, sodium sulphate Na2^35SO4. After culturing for two weeks, 10 μCi/ml of the radio-labelled precursor are introduced into the culture medium for 48 hours, as well as the compounds under test (polysulphated α-, β- and γ-cyclodextrins) or the reference compounds (chondroitin sulphate and polysulphate) at an end concentration of 2.5 μg/ml.
The newly synthesised ^35S-aggrecans accumulate partly in the intercellular agarose medium or are released into the incubation medium.
At the end of the incubation period, the agarose gel is broken up mechanically and is then digested with 3 ml of a 50 U/ml solution of […] in a 0.067M phosphate buffer at pH 6.0, in the presence of proteinase inhibitors.
The suspension thereby obtained is centrifuged; the supernatant, which comprises the ^35S-aggrecans of the interterritorial matrix, and the incubation medium, comprising the metabolites of ^35S-aggrecans released into the extracellular matrix, are combined for subsequent chromatography.
The centrifuged pellet, comprising the chondrocytes and the ^35S-aggrecans associated therewith, is treated for 48 hours with 1 ml of a 4.0M solution of guanidinium chloride in a 0.05M acetate buffer at pH 5.8 comprising the proteinase inhibitors. The objective of this operation is to extract the ^35S-aggrecans associated with the cells. The solution obtained is centrifuged to separate the cells from the supernatant, which is separated off for subsequent chromatography. The chromatography operations on the various fractions obtained are carried out on Sephadex G25 gel in a pH 6.8 phosphate buffer containing 0.01M Na2SO4, so as to separate the ^35S-aggrecans from the free Na2^35SO4.
The radioactivity of each of the macromolecular eluates obtained is measured and related to the number of chondrocytes contained in the initial culture and is expressed in terms of pg of SO4 incorporated into the aggrecans, per million chondrocytes and per hour.

Substance | Amount of 35S-aggrecans associated with the cells | Amount of 35S-aggrecans in the medium | Amount of 35S-aggrecans in the interterritorial matrix
chondroitin polysulphate [CPS, reference compound] | 1392 pg of SO4 incorporated into the aggrecans, per million chondrocytes and per hour | 2519 pg of SO4 incorporated into the aggrecans, per million chondrocytes and per hour | 6446 pg of SO4 incorporated into the aggrecans, per million chondrocytes and per hour
chondroitin sulphate [CS, reference compound] | 1373 pg of SO4 incorporated into the aggrecans, per million chondrocytes and per hour | 2187 pg of SO4 incorporated into the aggrecans, per million chondrocytes and per hour | 6589 pg of SO4 incorporated into the aggrecans, per million chondrocytes and per hour
polysulphate β-cyclodextrin [β CD] | 2262 pg of SO4 incorporated into the aggrecans, per million chondrocytes and per hour | 1658 pg of SO4 incorporated into the aggrecans, per million chondrocytes and per hour | 6232 pg of SO4 incorporated into the aggrecans, per million chondrocytes and per hour
polysulphated α-cyclodextrin [α CD] | 1315 pg of SO4 incorporated into the aggrecans, per million chondrocytes and per hour | 1589 pg of SO4 incorporated into the aggrecans, per million chondrocytes and per hour | 8036 pg of SO4 incorporated into the aggrecans, per million chondrocytes and per hour
polysulphated γ-cyclodextrin [γ CD] | 2907 pg of SO4 incorporated into the aggrecans, per million chondrocytes and per hour | 3873 pg of SO4 incorporated into the aggrecans, per million chondrocytes and per hour | 8232 pg of SO4 incorporated into the aggrecans, per million chondrocytes and per hour
